Like-named read-outs stand apart in the source and are kept apart here.
Tests used:
[1] = system: TNFα-induced apoptosis, WEHI-13VAR cells; assay: TNFα induced apoptosis in WEHI-13VAR cells (MTT); assay type: cell-based, murine; settings: Mus musculus; for inhibition at 10 µM: 1 × 10^−5M; for inhibition at 20 µM: 2 × 10^−5M; for inhibition at 40 µM: 4 × 10^−5M; for inhibition at 5 µM: 5 × 10^−6M
Method: Effect of compounds on TNFα-induced apoptosis was measured by a standard biological assay using WEHI-13VAR cells. These cells undergo apoptosis when they are incubated in the presence of TNFα and actinomycin D. 2×10^4 WEHI-13VAR cells were incubated in RPMI supplemented with 1% sodium pyruvate and 10% FBS, overnight at 37° C. for cell adherence. The cells were then cultured in the presence of 1 μg/mL of actinomycin D (to inhibit protein synthesis) and 0.04 nM TNFα with or without compounds at 37° C. After 16-24 h, 50 μL of a solution of 2 mg/mL of MTT was added to each well and the plate was then incubated for 4 h at 37° C. Only viable cells metabolize MTT to form formazan salt, which is detectable by the measurement of absorbance at 570 nm. After the incubation, the plate was inverted to remove medium and dead cells. 150 μL DMSO was added to each well to stop the reaction and solubilize the formazan salt. Optical density was read on a EL 800, universal Microplate reader (Bio-Tek). A decrease in the optical density is direct evidence of cell apoptosis induced by TNFα. Compounds were also compared to the activity of an anti-TNFα neutralizing antibody.

[2] = biological target: T1, Fc portion of human IgG (binding of protein A to human IgG); assay: Competitive protein A binding ELISA
T1 construct: fused on or other part: Horseradish peroxidase chemically conjugated to the IgG (HRP-IgG)
Method: As described above, this assay evaluates the ability of the exemplified compounds to mimic protein A. Such compounds can bind to the Fc portion of human IgG as ascertained by the inhibition of binding of protein A to human IgG. The competitive protein A binding ELISA assay was performed on a 96-well plate Maxisorp surface to enhance the binding of protein A to the bottom of the plate. The wells were coated with 100 μL of protein A (0.8 μg) and incubated overnight at 4° C. After incubation, unbound protein A was removed by three washes with phosphate buffer saline (PBS). The plate was then incubated with 100 μL/well of a 2% solution of bovine serum albumin (BSA) for 1 h at 37° C. to block non specific protein binding. After incubation, the plate was washed to times with PBS. 50 μL of compound or protein A, diluted in PBS or PBS-20% DMSO at appropriate concentration, were added to the wells followed by addition of 50 μL of peroxidase-conjugated human IgG (HRP-IgG). After 1 h incubation at 37° C., the plate was washed free times with PBS to remove unbound HRP-IgG. Bound HRP-IgG was detected by incubation with 100 μL of 2,2′-Azino-di[3-ethylbenzothiazoline sulfonate]diammonium salt crystals (ABTS) solution for 20 min in the dark at room temperature. The plate was then read at 405 nm on a EL 800, universal Microplate reader (Bio-Tek). Data was analyzed in Microsoft Excel and the concentration of compound which inhibits 50% binding of protein A (IC50) was calculated using Prism software.
Table 1 represents the IC50 of compounds tested in the competitive protein A binding ELISA assay, which consists of a side-by-side analysis in PBS and PBS-20% DMSO. DMSO was used to increase the solubility of some of the compounds.

[3] = system: TNFα production, J774A-1 cells; assay: LPS-induced TNFα production in J774A-1 cells (ELISA); assay type: cell-based; settings: Mus musculus, J774.A1, 24 h, read-out: IC50 (μM), inhibition of TNFα released by LPS induction
Method: Effect of compounds on TNFα production was measured by ELISA using J774-1 cells stimulated by LPS. J774-1 cells were cultured in the presence or absence of LPS and compound. Cells were cultured at 37° C. for 24 h and thereafter the supernatants were collected for the determination of the concentration of TNFα by ELISA as recommended by the manufacturer (BD Biosciences). Data was analyzed in Microsoft Excel and the concentration of compound which inhibits 50% of TNFα production (IC50) was calculated using Prism software.

[4] = Table 1, PBS-20% DMSO, read-out: IC50 (μM): Assay in PBS-20% DMSO
[5] = Table 1, PBS, read-out: IC50 (μM): Assay in PBS
[6] = Table 2, PBS-20% DMSO, n = 5 or 6, read-out: IC50 (n = 5 or 6) PBS-20% DMSO
[7] = Table 2, PBS, n = 5 or 6, read-out: IC50 (n = 5 or 6) PBS

IC50 [2, 4] [µM]	IC50 [2, 5] [µM]	Compound	further results
28		COC(=O)[C@H](Cc1ccc(O)cc1)Nc1nc(NCCNc2nc(NCCc3cc4ccccc4[nH]3)nc(N[C@@H](Cc3ccc(O)cc3)C(=O)OC)n2)nc(NCCc2cc3ccccc3[nH]2)n1 [Compound 8]	
70	33	NCCNc1nc(NCCc2ccc(Oc3nc(NCCc4ccc(O)cc4)nc(Nc4ccccc4)n3)cc2)nc(Nc2ccccc2)n1 [Compound 13]	IC50 [3]: 13.4 µM
28		Oc1ccc(CCNc2nc(Nc3ccccc3)nc(Nc3ccc(CNc4nc(NCCc5cnc[nH]5)nc(Nc5ccccc5)n4)cc3)n2)cc1 [Compound 27]	
0.003	0.2	Nc1ccc(CCNc2nc(Nc3cccc(N)c3)nc(N3CCN(c4nc(NCCc5ccc(N)cc5)nc(Nc5cccc(N)c5)n4)CC3)n2)cc1 [Compound 29]	IC50 [2, 6]: 0.0029 µM; IC50 [2, 7]: 0.225 µM
0.03	0.4	Nc1ccc(CCNc2nc(NCC3CCN(c4nc(NCCc5ccc(N)cc5)nc(Nc5cccc(N)c5)n4)CC3)nc(Nc3cccc(N)c3)n2)cc1 [Compound 30]	IC50 [2, 6]: 0.033 µM; IC50 [2, 7]: 0.426 µM
0.12	0.99	Nc1ccc(CCNc2nc(NCCCCCCNc3nc(NCCc4ccc(N)cc4)nc(Nc4cccc(N)c4)n3)nc(Nc3cccc(N)c3)n2)cc1 [Compound 31]	
2	33	Nc1ccc(CCNc2nc(NCC3CCN(c4nc(NCCc5ccc(N)cc5)nc(Nc5ccccc5)n4)CC3)nc(Nc3ccccc3)n2)cc1 [Compound 32]	
1	23	Cc1ccc(Nc2nc(NCCc3ccc(N)cc3)nc(Nc3ccccc3)n2)cc1CNc1nc(NCCO)nc(Nc2ccccc2)n1 [Compound 34]	
16		Nc1ccc(CCNc2nc(Nc3ccccc3)nc(N3CCN(c4nc(NCCc5ccc(N)cc5)nc(Nc5ccccc5)n4)CC3)n2)cc1 [Compound 36]	
23		Oc1ccc(CCNc2nc(NCc3ccccc3Nc3nc(NCCc4ccc(O)cc4)nc(Nc4ccccc4)n3)nc(Nc3ccccc3)n2)cc1 [Compound 37]	
0.02	0.03	Nc1cccc(Nc2nc(N)nc(NCc3ccc(CNc4nc(N)nc(Nc5cccc(N)c5)n4)cc3)n2)c1 [Compound 41]	
0.05	0.05	Nc1cccc(Nc2nc(NCCO)nc(Nc3ccc(CNc4nc(Nc5cccc(N)c5)nc(Nc5cccc(N)c5)n4)cc3)n2)c1 [Compound 42]	inhibition at 10 µM [1]: -1.7%; inhibition at 20 µM [1]: 0.5%; inhibition at 40 µM [1]: 30.4%; inhibition at 5 µM [1]: -3.1%
0.05	0.08	Nc1cccc(Nc2nc(NCCO)nc(Nc3cccc(CNc4nc(Nc5cccc(N)c5)nc(Nc5cccc(N)c5)n4)c3)n2)c1 [Compound 43]	
0.8	0.2	Nc1cccc(Nc2nc(N)nc(Nc3cccc(Nc4nc(NCCO)nc(Nc5cccc(N)c5)n4)c3)n2)c1 [Compound 46]	
0.05	0.2	Nc1ccc(CNc2nc(NCc3ccc(CNc4nc(NCc5ccc(N)cc5)nc(Nc5cccc(N)c5)n4)cc3)nc(Nc3cccc(N)c3)n2)cc1 [Compound 48]	

Continued, compound first:

Compound	IC50 [2, 4] [µM]	IC50 [2, 5] [µM]	further results
COC(=O)c1ccccc1Nc1nc(NCCNc2nc(NCCc3ccc(O)cc3)nc(Nc3ccccc3C(=O)OC)n2)nc(NCCc2ccc(O)cc2)n1 [Compound 2]			inhibition at 10 µM [1]: 43.7%; inhibition at 20 µM [1]: 48.4%; inhibition at 40 µM [1]: 48.3%; inhibition at 5 µM [1]: 37.3%
Nc1ccc(CNc2nc(NCCNc3nc(NCc4ccc(N)cc4)nc(Nc4ccccc4)n3)nc(Nc3ccccc3)n2)cc1 [Compound 6]	0.4	2.4	
O=C(O)c1ccccc1Nc1nc(NCCNc2nc(NCCc3ccc(O)cc3)nc(Nc3ccccc3C(=O)O)n2)nc(NCCc2ccc(O)cc2)n1 [Compound 9]	50		
O=C(O)[C@H](Nc1nc(NCCNc2nc(NCCc3ccc(O)cc3)nc(N[C@@H](C(=O)O)c3ccccc3)n2)nc(NCCc2ccc(O)cc2)n1)c1ccccc1 [Compound 10]	85	69	
Oc1ccc(CCNc2nc(NCCNc3nc(NCCc4ccc(O)cc4)nc(Sc4ccccc4)n3)nc(Sc3ccccc3)n2)cc1 [Compound 11b]	45		IC50 [3]: 23.3 µM
CC(=O)NCCNc1nc(NCCc2ccc(Nc3nc(NCCc4ccc(O)cc4)nc(Nc4ccccc4)n3)cc2)nc(Nc2ccccc2)n1 [Compound 15]	35		IC50 [3]: 14.2 µM
NCCCCNc1nc(NCCc2ccc(Nc3nc(NCCc4ccc(O)cc4)nc(Nc4ccccc4)n3)cc2)nc(Nc2ccccc2)n1 [Compound 16]	55	36	IC50 [3]: 13.6 µM
OCCNc1nc(NCCc2ccc(Oc3nc(NCCc4ccc(O)cc4)nc(Nc4ccccc4)n3)cc2)nc(Nc2ccccc2)n1 [Compound 21]			IC50 [3]: 4.8 µM
COc1ccccc1Nc1nc(NCCN)nc(NCCc2ccc(Nc3nc(NCCc4ccc(O)cc4)nc(Nc4ccccc4)n3)cc2)n1 [Compound 22]			IC50 [3]: 62.1 µM
COc1ccccc1Nc1nc(NCCCCN)nc(NCCc2ccc(Oc3nc(NCCc4ccc(O)cc4)nc(Nc4ccccc4)n3)cc2)n1 [Compound 23]			IC50 [3]: 16.5 µM
NCCCNc1nc(NCCc2ccc(Nc3nc(NCCc4ccc(O)cc4)nc(Nc4ccccc4)n3)cc2)nc(Nc2ccccc2)n1 [Compound 24]			IC50 [3]: 11.5 µM
OCCNc1nc(NCC2CCN(c3nc(NCCO)nc(Nc4ccccc4)n3)CC2)nc(Nc2ccccc2)n1 [Compound 26]			inhibition at 10 µM [1]: 27.3%; inhibition at 20 µM [1]: 38%; inhibition at 40 µM [1]: -11.5%; inhibition at 5 µM [1]: 9.7%
Nc1ccc(CCNc2nc(Nc3ccccc3)nc(Nc3cccc(CNc4nc(NCCO)nc(Nc5ccccc5)n4)c3)n2)cc1 [Compound 35]	1	23	
Oc1ccc(CCNc2nc(Nc3ccccc3)nc(Nc3cccc(Nc4nc(NCCc5ccc(O)cc5)nc(Nc5ccccc5)n4)c3)n2)cc1 [Compound 38]			IC50 [3]: 9.5 µM
Oc1ccc(CCNc2nc(Nc3ccccc3)nc(N[C@H](COc3nc(NCCc4ccc(O)cc4)nc(Nc4ccccc4)n3)c3ccccc3)n2)cc1 [Compound 39]	43		
NCCNc1nc(NCc2cccc(CNc3nc(NCCc4ccc(O)cc4)nc(Nc4ccccc4)n3)c2)nc(Nc2ccccc2)n1 [Compound 40]			IC50 [3]: 87.2 µM
Nc1cccc(Nc2nc(NCCO)nc(N3CCN(c4nc(Nc5cccc(N)c5)nc(Nc5cccc(N)c5)n4)CC3)n2)c1 [Compound 44]	0.04	0.09	
Nc1cccc(CNc2nc(Nc3ccc(CNc4nc(N)nc(Nc5cccc(N)c5)n4)cc3)nc(Nc3cccc(N)c3)n2)c1 [Compound 45]	0.08	0.1	inhibition at 10 µM [1]: 2.9%; inhibition at 20 µM [1]: 4.1%; inhibition at 40 µM [1]: 32.9%; inhibition at 5 µM [1]: -0.3%
Nc1cccc(Nc2nc(NCCO)nc(Nc3ccc(Nc4nc(NCCO)nc(Nc5cccc(N)c5)n4)cc3)n2)c1 [Compound 47]	0.2	0.2	
Nc1cccc(Nc2nc(NCCO)nc(Nc3cccc(Nc4nc(NCCO)nc(Nc5cccc(N)c5)n4)c3)n2)c1 [Compound 49]	0.5	0.3	
Nc1cccc(Nc2nc(Nc3cccc(Nc4nc(Nc5cccc(N)c5)nc(NC(CO)CO)n4)c3)nc(NC(CO)CO)n2)c1 [Compound 50]	1	0.4	
Nc1cccc(Nc2nc(N)nc(Nc3cccc(Nc4nc(N)nc(Nc5cccc(N)c5)n4)c3)n2)c1 [Compound 51]	6	0.6	

From patent US7683061B2, “Triazine dimers for the treatment of autoimmune diseases” (ProMetic BioSciences Inc., priority 2003, dated 2010)
